Source: patent publication US20030125572A1, “Diester compounds of maleic acid (or fumaric acid)” (SENJU PHARMACEUTICAL CO., LTD., priority 1999, published 2003)
pIC50: −log10 of the molar value. Structures can show the parent of a compound that is named as a salt.

Experiments:
[1] = test system: mouse auricule inflammation; assay: Inflammation model of mouse auricule (PMA-induced edema); assay type: in vivo; settings: for Inhibition rate (%): auricule edematization, against control (methanol), 0.5% solution topically, 24 hours
Procedure: The compound of Example 1 is dissolved in ethanol to the concentration of 0.5%.
6-Weeks aged male mice of ddy strain as procured from SLC CO. are subjected to the test.
In order to cause inflammation, a solution (100 μg/mL) of phorbol 12-myristate 13-acetate (PMA) in acetone is applied in 10-μl portions (20 μl in total per mouse) onto the inside and outside of right-hand auricule of each mouse in such a manner that the solution may extend over the whole auricule. 24 Hours after causing inflammation, the thickness of right-hand auricule of each mouse is measured with use of a dial thickness gauge, and the edematization rate is calculated based on the thickness before causing inflammation.
The test substance is applied in 10-μl portions (20 μl in total per mouse) onto the inside and outside of right-hand auricule of each mouse.

[2] = DPPH radical scavenging capacity; settings: for Radical scavenging capacity: DPPH, 20 min, absorbance at 517 nm
Procedure: The Compound is tested for the radical scavenging capacity against the stabilized radical of 1,1-diphenyl-2-picrylhydro radicals (DPPH).
The compound of Example 1 is dissolved in ethanol to the concentrations ranging from 10^−2 to 10^−5 M.
The test is carried out in accordance with the procedure of Blois, M. S., Nature: 181, 1199 […].
Added to 300 μl of a sample solution is 2.7 ml of a 0.011 mM ethanol solution of DPPH or a stabilized radical, and the solution is stirred and left on standing for 20 min., followed by measurement of absorbance at a wavelength of 517 nm. The radical scavenging rate of the sample solution is determined by the following equation:
Radical scavenging rate (%)=(absorbance of control−absorbance of the sample solution[…])×100

Compound: Cc1c(C)c2c(c(C)c1OC(=O)/C=C\C(=O)OC1=C(O)[C@@H]([C@@H](O)CO)OC1=O)CCC(C)(CCCC(C)CCCC(C)CCCC(C)C)O2 (stereo partly drawn) [Example 1, α-Tocopheryl L-Ascorbic Acid-2-O-Maleate (or Fumarate)]
- Inhibition rate (%) ([1]; listed as Compound of Example 1): 83.8%
- Inhibition rate (%) ([1]; listed as the Compound): 83.3%
- Edematization rate (%) ([1]; male ddy mice, PMA on right auricule, 24 hours after causing inflammation, 0.5% solution applied topically, 20 μl per mouse, mean ± S.E. (n = 8)): 26.9 ± 6.2 %
- pIC50 ([2]; DPPH radical): ~3.25
- Radical scavenging capacity ([2]; final concn. 10 μM): 5.2%
- Radical scavenging capacity ([2]; final concn. 100 μM): 10.8%
- Radical scavenging capacity ([2]; final concn. 300 μM): 29.5%
- Radical scavenging capacity ([2]; final concn. 1000 μM): 61.4%
